The conditions of series [1]: data of phase II, cited from earlier work.
The conditions of series [2]: preclinical toxicology and data of phase I; cited from earlier work.
The next series addresses T1, THRα (Homo sapiens, UniProt P10827).
T1 construct: GST
Briefly: THRα binding assay (as the THRβ assay, THRβ replaced with THRα). As to conditions: for EC50: THRα in place of THRβ; for THRα/β selectivity (fold): ratio of THRα EC50 to THRβ EC50. The format is biochemical.

A short description of series [3]: In vitro liver microsome stability assay. The format is in vitro ADME. As to conditions: liver microsomes, pH 7.4; human, 0.2 mg/mL liver microsomal protein, 1 μM test substance, 37° C.; read-out: Liver microsome stability (species: human): T½. The procedure: The test substance and the positive control substance verapamil were respectively dissolved with DMSO to 10 mM as a stock solution. The above 10 mM stock solution was diluted with 70% acetonitrile aqueous solution to a concentration of 0.25 mM.
An NADPH regeneration system finally containing concentrations of 6.5 mM NADP, 16.5 mM G-6-P, 3 U/mL G-6-PDH, and 3.3 mM MgCl was prepared.
Stopping solution was an acetonitrile solution containing tolbutamide and propranolol (both internal standards).
Phosphate buffer was a 100 mM K3PO4 (pH=7.4) buffer containing 3.3 mM MgCl2.
Liver microsomal incubation system was a 100 mM phosphate buffer containing 0.2 mg/mL liver microsomal protein and 1 μM test substance/positive control.
80 μL of the mixed solution from the incubation system was taken. 400 μL of the stopping solution was added to precipitate protein. The mixture was vortexed and added with 20 μL of NADPH regeneration system as the sample at 0 min.
130 μL of NADPH regeneration system was added to the remaining 520 μL of protein-drug mixed solution. The mixture was mixed well, and incubated. The final incubation system was 650 μL, containing 0.2 mg/mL liver microsomal protein, 1 μM test substance/positive control, 1.3 mM NADP, 3.3 mM G-6-P, and 0.6 U/mL G-6-PDH.
The mixed system was slowly shaken and incubated in a water bath at 37° C. 100 μL of the incubation solution was taken at 5, 10, 30, and 60 min, respectively, and added into a new 96-well plate with 400 μL of stopping solution in each well. The mixture in each well was mixed well, and the protein was precipitated by centrifuging at 4000×g for 15 minutes at 4° C.
100 μL of the supernatant was taken, and diluted with water at a ratio of 1:2. The samples were analyzed by LC-MS/MS.

The next series has as its target T2, THRβ (Homo sapiens, UniProt P10828).
T2 construct: RXRα and THRβ-LBD Eu-anti-GST antibody with GST tag
Briefly: THRβ binding assay (time-resolved FRET coactivator peptide recruitment). The format is biochemical. To be noted: THRβ-LBD/RXRα, SRC2-2 coactivator peptide recruitment, 4 hours at room temperature. The procedure: Experimental methods: In vitro analysis of the agonistic effect of compounds on THRβ was performed using time-resolved fluorescence resonance energy transfer coactivator peptide recruitment assays. The assay used biotin-SRC2-2 coactivator peptide, streptavidin-d2, RXRα and THRβ-LBD Eu-anti-GST antibody with GST tag. Eu-anti-GST antibody indirectly labeled THRβ-LBD by binding to the GST tag. Streptavidin-d2 indirectly labeled the SRC2-2 coactivator peptide by binding to the biotin tag. In the presence of RXRα, THRβ-LBD can form heterodimer THRβ-LBD/RXRα with it. […] According to the effect of different concentrations of the compound on the activity of THRβ, the agonistic ability of the compound can be evaluated.
The detailed procedure is as follows: • a. 100× reference compound or compound was prepared with DMSO, and equally diluted by 1:3. • b. 100× gradiently diluted reference compound or compound was diluted with 1× reaction buffer to 4×, which was then added to an assay plate. • c. A mixed solution of 4× THRβ-LBD and 4× RXRα was prepared with 1× reaction buffer, and added to the assay plate. • d. A mixed solution of 2× biotin-SRC2-2, 2× Eu-anti-GST, and 2× streptavidin-d2 was prepared with 1× reaction buffer, and added to the assay plate. • e. The assay plate was centrifuged at 1000 rpm for 1 min, and incubated at room temperature in the dark for 4 hours. • f.

The nature of series [4]: In vivo pharmacokinetics in mice. To be noted: male ICR mice, intragastric, single dose 3 mg/Kg; for Area of curve / half-life: plasma; for half-life: mouse, po. Here is the method:
Mice were used as test animals, and intragastrically administered with the compounds of Example 1 and Example 46, and then the drug concentrations in plasma at different time points were measured. The pharmacokinetic performance of the compounds of the present invention in mice was studied, and the drug metabolism characteristics were evaluated. In the example, healthy adult male ICR mice with similar body weight were selected, and orally administered with drugs once at a dose of 3.0 mg/kg. Whole blood was collected before the administration and 1 h, 2 h, 4 h, 6 h, 8 h, 12 h, 24 h and 48 h after the administration, respectively. LC/MS/MS method was established to determine the concentrations of prototype drugs in plasma samples. The main pharmacokinetic parameters were calculated using WinNonlin 6.3 NCA model.
Experimental drug: the compounds obtained in Example 1 and Example 46.
Experimental animals: 9 healthy adult male ICR mice, equally divided into 3 groups, 3 mice in each group, purchased from Shanghai Xipu'er-Bikai Experimental Animal Co., Ltd., with an animal certificate number: SOCK (Shanghai) 2018-0006 2018 0006 010467.
Preparation of drug: A certain amount of the compounds of Example 1 and Example 46 were accurately weighed, put into a 15 ml sample tube, wetted by 5 μL of Tween 80, and then added with 5.2 mL of 2% hydroxypropyl methylcellulose (HPMC) solution. The mixture was sonicated and mixed by vortex to obtain a homogeneous suspension. The drugs were freshly prepared just before use.
Administration: After fasting overnight, ICR mice were intragastrically administered with the drugs at a dose of 3.0 mg/kg.
Operation: The mice were intragastrically administered with the compounds of Example 1 and Example 46. Whole blood was collected before the administration and 1 h, 2 h, 4 h, 6 h, 8 h, 12 h, 24 h and 48 h after the administration, then anticoagulated with heparin sodium, and centrifuged at 4° C. for 5 min. Plasma was separated, and stored at −80° C. for determination.
Determination of the contents of the compounds to be tested in the mice plasma after intragastric administration of drugs: 12.5 μL of the mice plasma to be tested at each time point after the administration of the compounds of Example 1 and Example 46 were taken respectively, mixed in pairs, and added with 100 μL of the internal standard solution and 125 μL of methanol. The mixture was mixed by vortex for 2 min, and centrifuged at 13000 rpm for 10 min at 4° C. The supernatant was taken for LC-MS/MS analysis.

T1 sequence (P10827 1-410 isoform P10827-2, other chains not shown): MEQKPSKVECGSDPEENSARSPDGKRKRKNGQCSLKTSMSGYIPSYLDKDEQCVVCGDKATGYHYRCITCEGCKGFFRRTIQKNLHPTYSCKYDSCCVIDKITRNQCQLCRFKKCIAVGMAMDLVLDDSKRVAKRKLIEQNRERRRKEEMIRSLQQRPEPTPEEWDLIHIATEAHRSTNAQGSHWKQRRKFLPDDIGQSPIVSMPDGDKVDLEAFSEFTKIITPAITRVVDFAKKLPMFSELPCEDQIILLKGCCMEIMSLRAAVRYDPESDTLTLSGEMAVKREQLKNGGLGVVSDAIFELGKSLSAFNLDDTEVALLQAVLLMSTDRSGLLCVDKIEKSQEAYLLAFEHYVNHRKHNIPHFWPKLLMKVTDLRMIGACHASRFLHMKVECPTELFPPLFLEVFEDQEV
T1 sequence (P19793 whole entry partner, other chains not shown): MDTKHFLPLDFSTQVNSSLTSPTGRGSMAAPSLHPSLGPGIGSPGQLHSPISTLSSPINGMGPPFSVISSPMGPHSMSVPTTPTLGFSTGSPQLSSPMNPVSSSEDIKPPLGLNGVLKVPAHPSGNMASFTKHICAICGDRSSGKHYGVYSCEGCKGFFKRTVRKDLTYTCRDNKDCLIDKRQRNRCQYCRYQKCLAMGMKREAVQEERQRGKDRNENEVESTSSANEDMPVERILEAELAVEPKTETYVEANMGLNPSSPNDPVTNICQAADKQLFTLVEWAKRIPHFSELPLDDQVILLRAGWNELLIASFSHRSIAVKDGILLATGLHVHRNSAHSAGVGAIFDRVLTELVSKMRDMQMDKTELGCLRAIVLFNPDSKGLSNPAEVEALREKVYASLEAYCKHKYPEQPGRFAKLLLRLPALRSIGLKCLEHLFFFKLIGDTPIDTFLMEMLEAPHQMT
T2 sequence (P10828 217-461 limits assumed, other chains not shown): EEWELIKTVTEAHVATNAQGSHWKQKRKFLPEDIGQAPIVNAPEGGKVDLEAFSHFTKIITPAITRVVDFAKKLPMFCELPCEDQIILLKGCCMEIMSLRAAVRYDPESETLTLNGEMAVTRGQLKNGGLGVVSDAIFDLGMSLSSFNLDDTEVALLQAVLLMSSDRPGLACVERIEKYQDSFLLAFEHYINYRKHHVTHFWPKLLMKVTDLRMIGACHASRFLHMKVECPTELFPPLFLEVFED
T2 sequence (P19793 whole entry partner, other chains not shown, the tested form may be a part): as the sequence (P19793 whole entry partner, other chains not shown) above

With `CC(C)c1cc(Oc2c(Cl)cc(-n3nc(C#N)c(=O)[nH]c3=O)cc2Cl)n[nH]c1=O` [Control compound 2, MGL-3196], the severe cases in series [1] (not related to treatment) is listed as 3. In addition, in series [1], the “adverse effects (AEs) mild” value is listed as 85% and the “adverse effects (AEs) moderate” value is 15%. The “LDL cholesterol, triglycerides and lipoproteins” value in series [2] is recorded as “significantly reduce”.

By EC50 is commonly meant the concentration needed to bring the measured effect to its halfway point. Low readings indicate a more potent agent, high ones a less potent agent. In the case of `N#Cc1nn(-c2cc(Cl)c(Oc3ccc(=O)n(-c4ccccc4)c3)c(Cl)c2)c(=O)[nH]c1=O` [Example 20, 2-(3,5-dichloro-4-((6-oxo-1-phenyl-1,6-dihydropyridin-3-yl)oxy)phenyl)-3,5-dioxo-2,3,4,5-tetrahydro-1,2,4-triazine-6-carbonitrile], on THRα, the EC50 worked out at 4180 nM and the “THRα/β selectivity (fold)” value amounted to 47.5 fold. The half-life at 1 μM in series [3] was greater than 2 h. On THRβ, this compound gave an EC50 of 88 nM.

In the case of `N#Cc1nn(-c2cc(Cl)c(Oc3ccc(=O)n(C4CCC4)c3)c(Cl)c2)c(=O)[nH]c1=O` [Example 3, 2-(3,5-dichloro-4-[(1-cyclobutyl-6-oxo-1,6-dihydropyridin-3-yl)oxy]phenyl)-3,5-dioxo-2,3,4,5-tetrahydro-1,2,4-triazine-6-carbonitrile], on THRα, the midpoint of the response, the EC50, lay at 290 nM and the “THRα/β selectivity (fold)” value amounted to 12.6 fold. Besides, the half-life at 1 μM in series [3] came to 1.05 h. On THRβ, this compound had an EC50 of 23 nM.

Turning to `N#Cc1nn(-c2cc(Cl)c(Oc3ccc(=O)n(C4=CCCC4)c3)c(Cl)c2)c(=O)[nH]c1=O` [Example 11, 2-(3,5-Dichloro-4-((1-(cyclopentyl-1-en-1-yl)-6-oxo-1,6-dihydropyridin-3-yl)oxy)phenyl)-3,5-dioxo-2,3,4,5-tetrahydro-1,2,4-triazine-6-carbonitrile], on THRα, the EC50 was found to be 236 nM and the “THRα/β selectivity (fold)” value was 13.9 fold. In addition, the half-life at 1 μM in series [3] came to 0.693 h. This compound also showed an EC50 on THRβ of 17 nM.

`CC(C)n1cc(Oc2c(Cl)cc(-n3nc(C#N)c(=O)[nH]c3=O)cc2Cl)ccc1=O` [Example 1, 2-(3,5-Dichloro-4-((1-isopropyl-6-oxo-1,6-dihydropyridin-3-yl)oxy)phenyl)-3,5-dioxo-2,3,4,5-tetrahydro-1,2,4-triazine-6-carbonitrile]: on THRα, the EC50 was 49 nM and the “THRα/β selectivity (fold)” value was determined as 4.5 fold. Besides, in series [4], the “Peak plasma concentration” value came to 54.0 ng/mL, the “Area of curve” value was found to be 535.2 ng·h/mL and the half-life is 5.6 h. The compound further came in with an EC50 on THRβ of 11 nM.

Consider `[2H]C1(n2cc(Oc3c(Cl)cc(-n4nc(C#N)c(=O)[nH]c4=O)cc3Cl)ccc2=O)CCCC1` [Example 14], for which, at THRα, the EC50 turned out to be 600 nM and the “THRα/β selectivity (fold)” value is 20.0 fold. Besides, in series [3], the half-life at 1 μM turned out to be 0.0767 h. It took 30 nM to reach a half-maximal effect at THRβ (EC50).

Consider `N#Cc1nn(-c2cc(Cl)c(Oc3ccc(=O)n(-c4cccc(F)c4)c3)c(Cl)c2)c(=O)[nH]c1=O` [Example 22, 2-(3,5-Dichloro-4-((1-(3-fluorophenyl)-6-oxo-1,6-dihydropyridin-3-yl)oxy)phenyl)-3,5-dioxo-2,3,4,5-tetrahydro-1,2,4-triazine-6-carbonitrile], for which, at THRα, the EC50 stood at 669 nM and the “THRα/β selectivity (fold)” value came out at 33.5 fold. Moreover, in series [3], the half-life at 1 μM is greater than 2 h. Moreover, the EC50 at THRβ is 20 nM.

Regarding `CC1CCc2c(Oc3c(Cl)cc(-n4nc(C#N)c(=O)[nH]c4=O)cc3Cl)ccc(=O)n21` (stereo not drawn) [Example 46, 2-(3,5-dichloro-4-((3-methyl-5-oxo-1,2,3,5-tetrahydroindoline-8-yl)oxy)phenyl)-3,5-dioxo-2,3,4,5-tetrahydro-1,2,4-triazine-6-carbonitrile], on THRα, the EC50 was 930 nM and the “THRα/β selectivity (fold)” value amounted to 9.1 fold. Moreover, in series [4], the “Peak plasma concentration” value was 92.37 ng/mL, the “Area of curve” value amounted to 1774.03 ng·h/mL and the half-life is 11.2 h. In addition, the EC50 on THRβ amounted to 102 nM.

(Values after US20240109863A1, “2-PYRIDONE DERIVATIVE, AND PREPARATION METHOD THEREFOR AND PHARMACEUTICAL APPLICATION THEREOF” (KPC PHARMACEUTICALS, INC, priority 2020, published 2024).)
